Counter-ions that a name gives are not always drawn. Like-named read-outs stand apart in the source and are kept apart here.
Assays:
Type in all cases: biochemical
Human PDE4C1 = target: T1, Human PDE4C1 (Homo sapiens, UniProt Q08493); test: PDE4C1 Scintillation Proximity Assay (SPA), inhibition of enzyme activity; conditions: geometric mean of 2-7 determinations unless otherwise indicated (b: ≥8 determinations; c: single determination), 1 μM cAMP, 30 min at 25° C., read-out: Human PDE4C FL
T1 construct: His6 (N); FLAG (C); made in house; host or cells: insect cells (baculovirus, pFastBac)
Summary of the method: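 Human recombinant FLAG/His-purified PDE4C1 from insect cells at 40 pM, with 1 μM cAMP (3H-cAMP tracer) in Tris pH 7.5, 1.3 mM MgCl2, 0.01% Brij, ~20% substrate turnover. Incubation 30 min at 25° C with a range of inhibitor concentrations. Stopped with yttrium silicate SPA beads and read by scintillation after 8 h settling.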

human PDE4D3 = target: T2, human PDE4D3 (Homo sapiens, UniProt Q08499); test: PDE4D3 Scintillation Proximity Assay (SPA), inhibition of enzyme activity
T2 construct: His6 (C); made in house; host or cells: insect cells (baculovirus, pFastBac)
Summary of the method: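 Recombinant enzyme from insect cells, Ni-NTA and Q Sepharose purified, used at 10 pM in 50 mM Tris pH 7.5, 1.3 mM MgCl2, 0.01% Brij. Substrate 1 μM cAMP with 3H-cAMP tracer, ~20% conversion, inhibitor range, 30 min at 25°C. Stopped with yttrium silicate SPA beads and scintillation read.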

Human PDE4B1 = target: T3, Human PDE4B1 (Homo sapiens, UniProt Q07343, S133E/S654A/S659A/S661A); test: PDE4B1 Scintillation Proximity Assay (SPA), inhibition of enzyme activity
T3 construct: His6 (N); thrombin cleavage site (N); made in house; host or cells: insect cells (baculovirus, pFastBac)
Summary of the method: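 His-tagged human PDE4B1 expressed in insect cells and purified by Ni-NTA and Source 15Q was assayed in 50 mM Tris pH 7.5, 1.3 mM MgCl2, 0.01% Brij. The substrate was 1 μM cAMP with ³H-cAMP tracer, at about 20% conversion, for 30 min at 25 °C. Yttrium silicate SPA beads stopped the reaction; counts were read after 8 h settling.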

Human PDE4A3 = target: T4, Human PDE4A3 (Homo sapiens, UniProt P27815); test: PDE4A3 Scintillation Proximity Assay (SPA), inhibition of enzyme activity; conditions: geometric mean of 2-7 determinations unless otherwise indicated (b: ≥8 determinations; c: single determination), 1 μM cAMP, 30 min at 25° C., read-out: Human PDE4A FL
T4 construct: His6 (N); FLAG (C); made in house; host or cells: insect cells (baculovirus, pFastBac)
Summary of the method: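 Human PDE4A3 (aa 2–825, His6/FLAG-tagged, insect-cell expressed) at 80 pM hydrolyses 1 μM cAMP including 20 nM 3H-cAMP, ~20% conversion. Buffer is 50 mM Tris pH 7.5, 1.3 mM MgCl2, 0.01% Brij. Incubated 30 min at 25 °C with inhibitor range, stopped with yttrium silicate SPA beads, read after 8 h settling.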

[1] = geometric mean of 2-7 determinations unless otherwise indicated (b: ≥8 determinations; c: single determination), 1 μM cAMP, 30 min at 25° C., read-out: Human PDE4D FL, IC50
[2] = geometric mean of 2-7 determinations unless otherwise indicated (b: ≥8 determinations; c: single determination), 1 μM cAMP, 30 min at 25° C., read-out: Human PDE4B FL, IC50

T4 sequence (P27815 2-825 isoform P27815-6): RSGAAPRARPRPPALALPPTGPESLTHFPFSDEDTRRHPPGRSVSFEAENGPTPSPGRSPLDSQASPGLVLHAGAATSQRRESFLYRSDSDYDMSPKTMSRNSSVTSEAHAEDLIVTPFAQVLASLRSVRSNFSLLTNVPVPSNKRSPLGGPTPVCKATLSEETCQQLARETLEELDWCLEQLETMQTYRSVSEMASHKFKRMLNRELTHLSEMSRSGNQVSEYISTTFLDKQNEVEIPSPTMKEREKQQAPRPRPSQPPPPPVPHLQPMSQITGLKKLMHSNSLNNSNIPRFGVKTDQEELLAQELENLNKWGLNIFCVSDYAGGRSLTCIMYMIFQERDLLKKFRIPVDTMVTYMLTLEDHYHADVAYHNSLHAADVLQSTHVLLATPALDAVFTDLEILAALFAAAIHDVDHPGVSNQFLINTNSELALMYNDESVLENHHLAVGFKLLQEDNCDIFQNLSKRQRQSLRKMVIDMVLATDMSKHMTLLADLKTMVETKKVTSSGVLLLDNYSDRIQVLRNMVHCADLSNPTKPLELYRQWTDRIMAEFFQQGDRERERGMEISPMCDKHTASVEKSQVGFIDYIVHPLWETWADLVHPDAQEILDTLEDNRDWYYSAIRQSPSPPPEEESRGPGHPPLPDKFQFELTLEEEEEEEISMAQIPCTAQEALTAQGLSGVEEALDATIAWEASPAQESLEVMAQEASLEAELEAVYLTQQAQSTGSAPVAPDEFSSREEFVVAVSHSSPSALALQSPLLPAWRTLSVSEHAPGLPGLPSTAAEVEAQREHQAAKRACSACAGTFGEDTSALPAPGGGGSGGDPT
T2 sequence (Q08499 186-808): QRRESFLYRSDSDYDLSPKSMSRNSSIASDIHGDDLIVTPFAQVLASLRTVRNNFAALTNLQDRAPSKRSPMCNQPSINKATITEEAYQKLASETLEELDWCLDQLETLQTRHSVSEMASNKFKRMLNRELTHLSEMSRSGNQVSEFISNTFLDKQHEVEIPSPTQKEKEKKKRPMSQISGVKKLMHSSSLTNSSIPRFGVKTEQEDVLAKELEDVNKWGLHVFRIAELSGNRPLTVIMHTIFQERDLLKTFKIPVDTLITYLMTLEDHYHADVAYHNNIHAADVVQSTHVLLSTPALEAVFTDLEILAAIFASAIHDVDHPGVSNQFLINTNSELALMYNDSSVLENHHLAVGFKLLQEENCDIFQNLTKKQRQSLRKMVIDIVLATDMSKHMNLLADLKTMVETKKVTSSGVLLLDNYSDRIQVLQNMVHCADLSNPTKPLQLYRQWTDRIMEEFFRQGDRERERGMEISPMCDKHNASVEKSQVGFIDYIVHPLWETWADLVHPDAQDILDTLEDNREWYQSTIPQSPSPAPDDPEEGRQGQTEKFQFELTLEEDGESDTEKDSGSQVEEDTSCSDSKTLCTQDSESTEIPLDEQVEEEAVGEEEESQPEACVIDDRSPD
T1 sequence (Q08493 2-712): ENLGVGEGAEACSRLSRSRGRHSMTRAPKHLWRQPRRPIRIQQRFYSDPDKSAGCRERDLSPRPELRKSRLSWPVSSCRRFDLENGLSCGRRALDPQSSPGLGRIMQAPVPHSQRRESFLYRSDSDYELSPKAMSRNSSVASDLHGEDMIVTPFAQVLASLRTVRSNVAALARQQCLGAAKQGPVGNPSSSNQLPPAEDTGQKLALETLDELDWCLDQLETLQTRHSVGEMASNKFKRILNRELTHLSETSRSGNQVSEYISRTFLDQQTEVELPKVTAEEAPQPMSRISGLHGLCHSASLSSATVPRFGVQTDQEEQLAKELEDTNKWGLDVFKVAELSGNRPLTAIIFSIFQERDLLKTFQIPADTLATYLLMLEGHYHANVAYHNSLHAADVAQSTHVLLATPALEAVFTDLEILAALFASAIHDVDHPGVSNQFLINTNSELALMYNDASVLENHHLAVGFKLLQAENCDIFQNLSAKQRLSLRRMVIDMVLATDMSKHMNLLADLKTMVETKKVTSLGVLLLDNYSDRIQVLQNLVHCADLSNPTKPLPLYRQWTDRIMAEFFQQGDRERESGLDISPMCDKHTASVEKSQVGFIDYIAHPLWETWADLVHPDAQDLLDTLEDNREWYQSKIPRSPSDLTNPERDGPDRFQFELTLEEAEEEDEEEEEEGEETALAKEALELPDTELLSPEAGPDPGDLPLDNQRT
T3 sequence (Q07343 122-736 S133E/S654A/S659A/S661A): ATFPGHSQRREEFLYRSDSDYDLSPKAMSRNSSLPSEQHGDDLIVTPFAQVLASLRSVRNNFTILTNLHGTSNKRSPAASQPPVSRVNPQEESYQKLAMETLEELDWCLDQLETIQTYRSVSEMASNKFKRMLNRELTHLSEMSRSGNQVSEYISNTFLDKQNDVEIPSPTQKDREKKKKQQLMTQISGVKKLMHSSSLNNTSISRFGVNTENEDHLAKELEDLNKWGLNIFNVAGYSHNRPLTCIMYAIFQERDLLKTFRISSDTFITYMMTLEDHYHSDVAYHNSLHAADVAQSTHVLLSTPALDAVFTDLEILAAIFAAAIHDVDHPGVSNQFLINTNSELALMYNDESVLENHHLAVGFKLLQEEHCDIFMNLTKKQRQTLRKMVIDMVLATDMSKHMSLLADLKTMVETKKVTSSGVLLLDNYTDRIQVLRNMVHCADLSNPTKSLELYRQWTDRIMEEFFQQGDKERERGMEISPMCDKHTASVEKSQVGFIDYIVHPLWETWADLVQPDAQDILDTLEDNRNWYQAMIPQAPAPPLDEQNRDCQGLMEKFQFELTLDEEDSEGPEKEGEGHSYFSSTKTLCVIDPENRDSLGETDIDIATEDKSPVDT

| IC50 (Human PDE4C1) [µM] | IC50 (human PDE4D3; [1]) [µM] | IC50 (Human PDE4B1; [2]) [µM] | IC50 (Human PDE4A3) [µM] | SMILES | IC50 (human PDE4D3) [µM] | IC50 (Human PDE4B1) [µM] |
| --- | --- | --- | --- | --- | --- | --- |
| 0.276 | > 10.7 | 0.0624 | 0.0808 | CC1(NC(=O)c2nn3cccnc3c2-c2ccc(Cl)cc2)CC1 [Example 11, 3-(4-chlorophenyl)-N-(1-methylcyclopropyl)pyrazolo[1,5-a]pyrimidine-2-carboxamide] | – | – |
| 0.0234 | 1.08 | 0.0161 | 0.00877 | O=C(NC1CC1)c1nn2cc(F)cnc2c1-c1ccc(Cl)cc1 [Example 7, 3-(4-Chlorophenyl)-N-cyclopropyl-6-fluoropyrazolo[1,5-a]pyrimidine-2-carboxamide] | – | – |
| 0.0421 | 1.32 | 0.051 | 0.022 | N#Cc1cc(F)c(-c2c(C(=O)NC3CC3)nn3cccnc23)cc1F [Example 45, 3-(4-cyano-2,5-difluorophenyl)-N-cyclopropylpyrazolo[1,5-a]pyrimidine-2-carboxamide] | – | – |
| 0.00447 | 0.0526 | 0.002 | 0.001 | Cc1cc(Cl)c(F)cc1-c1c(C(=O)NC2CC2)nn2cc(F)cnc12 [Example 64, 3-(4-chloro-5-fluoro-2-methylphenyl)-N-cyclopropyl-6-fluoropyrazolo[1,5-a]pyrimidine-2-carboxamide] | – | – |
| 0.0394 | 0.442 | 0.0259 | 0.00842 | Cc1cc(C#N)c(F)cc1-c1c(C(=O)NC2CC2)nn2cccnc12 [Example 23, 3-(4-cyano-5-fluoro-2-methylphenyl)-N-cyclopropylpyrazolo[1,5-a]pyrimidine-2-carboxamide] | – | – |
| 1.54 | > 30 | 0.894 | 0.553 | CCCC(=O)Nc1nn2cccnc2c1-c1ccc(Cl)c(F)c1 [Example 4, N-[3-(4-Chloro-3-fluorophenyl)pyrazolo[1,5-a]pyrimidin-2-yl]butanamide] | – | – |
| 0.0268 | 0.111 | 0.0164 | 0.00346 | Cc1cc(C#N)c(F)cc1-c1c(C(=O)NC2CC2)nn2cc(F)cnc12 [Example 67, 3-(4-cyano-5-fluoro-2-methylphenyl)-N-cyclopropyl-6-fluoropyrazolo[1,5-a]pyrimidine-2-carboxamide] | – | – |
| 0.0663 | 0.3 | 0.0129 | 0.0232 | O=C(NC1CC1(F)F)c1nn2cccnc2c1-c1ccc(Cl)c(F)c1 (stereo not shown) [Example 39, 3-(4-chloro-3-fluorophenyl)-N-(2,2-difluorocyclopropyl)pyrazolo[1,5-a]pyrimidine-2-carboxamide] | – | – |
| 0.009 | 0.43 | 0.0201 | 0.00404 | O=C(NC1CC1)c1nn2cc(F)cnc2c1-c1ccc(Cl)c(F)c1F [Example 58, 3-(4-chloro-2,3-difluorophenyl)-N-cyclopropyl-6-fluoropyrazolo[1,5-a]pyrimidine-2-carboxamide] | – | – |
| 0.048 | 0.993 | 0.00606 | 0.022 | O=C(c1nn2cccnc2c1-c1ccc(Cl)c(F)c1)N1CCC1 [Example 12, azetidin-1-yl[3-(4-chloro-3-fluorophenyl)pyrazolo[1,5-a]pyrimidin-2-yl]methanone] | – | – |
| 0.0111 | 0.797 | 0.0255 | 0.0102 | O=C(NC1CC1)c1nn2cccnc2c1-c1ccc(Cl)c(F)c1F [Example 71, 3-(4-chloro-2,3-difluorophenyl)-N-cyclopropylpyrazolo[1,5-a]pyrimidine-2-carboxamide] | – | – |
| 0.0364 | 2.11 | 0.0414 | 0.0113 | CCNC(=O)c1nn2cccnc2c1-c1cc(F)c(Cl)cc1F [Example 19, 3-(4-chloro-2,5-difluorophenyl)-N-ethylpyrazolo[1,5-a]pyrimidine-2-carboxamide] | – | – |
| 0.044 | 0.979 | 0.0545 | 0.0147 | N#Cc1cc(F)c(-c2c(C(=O)N3CCC3)nn3cccnc23)cc1F [Example 46, 4-[2-(azetidin-1-ylcarbonyl)pyrazolo[1,5-a]pyrimidin-3-yl]-2,5-difluorobenzonitrile] | – | – |
| 0.0973 | 6.88 | 0.15 | 0.0399 | CCNC(=O)c1nn2cccnc2c1-c1ccc(Cl)cc1C [Example 18, 3-(4-chloro-2-methylphenyl)-N-ethylpyrazolo[1,5-a]pyrimidine-2-carboxamide] | – | – |
| 0.0296 | 1.29 | 0.0635 | 0.00728 | O=C(c1nn2cccnc2c1-c1cc(F)c(Cl)cc1F)N1CCC1 [Example 49, azetidin-1-yl[3-(4-chloro-2,5-difluorophenyl)pyrazolo[1,5-a]pyrimidin-2-yl]methanone] | – | – |
| 0.17 | 0.408 | 0.0033 | 0.0926 | O=C(NC1CC1)c1nn2cccnc2c1-c1cc(F)c(Cl)c(F)c1 [Example 33, 3-(4-chloro-3,5-difluorophenyl)-N-cyclopropylpyrazolo[1,5-a]pyrimidine-2-carboxamide, hydrochloride salt] | – | – |
| 0.0708 | > 4.87 | 0.0483 | 0.0177 | CCNC(=O)c1nn2cccnc2c1-c1ccnc(OC(F)F)c1 [Example 50, 3-[2-(difluoromethoxy)pyridin-4-yl]-N-ethylpyrazolo[1,5-a]pyrimidine-2-carboxamide] | – | – |
| 0.128 | 1.16 | 0.059 | 0.057 | O=C(NC1CC1)c1nn2cc(F)cnc2c1-c1ccc2ocnc2c1 [Example 65, 3-(1,3-benzoxazol-5-yl)-N-cyclopropyl-6-fluoropyrazolo[1,5-a]pyrimidine-2-carboxamide] | – | – |
| 0.111 | 10.9 | 0.0674 | 0.0645 | O=C(c1nn2cccnc2c1-c1ccc(Cl)cc1F)N1CCC1 [Example 20, azetidin-1-yl[3-(4-chloro-2-fluorophenyl)pyrazolo[1,5-a]pyrimidin-2-yl]methanone] | – | – |
| 0.965 | > 25.2 | 1.09 | 0.19 | O=C(Nc1ncccn1)c1nn2cccnc2c1-c1ccc(Cl)cc1 [Example 8, 3-(4-Chlorophenyl)-N-(pyrimidin-2-yl)pyrazolo[1,5-a]pyrimidine-2-carboxamide] | – | – |
| 0.0842 | > 9.3 | 0.0527 | 0.0179 | O=C(c1nn2cccnc2c1-c1ccc(Cl)cc1)N1CCC1 [Example 1, Azetidin-1-yl[3-(4-chlorophenyl)pyrazolo[1,5-a]pyrimidin-2-yl]methanone] | – | – |
| 0.00772 | 0.159 | 0.00493 | 0.00119 | O=C(NC1CC1)c1nn2cc(F)cnc2c1-c1ccc(Cl)c(F)c1 [Example 59, 3-(4-chloro-3-fluorophenyl)-N-cyclopropyl-6-fluoropyrazolo[1,5-a]pyrimidine-2-carboxamide] | – | – |
| 0.0218 | 0.83 | 0.032 | 0.00766 | CCNC(=O)c1nn2cccnc2c1-c1ccc(Cl)c(F)c1 [Example 53, 3-(4-chloro-3-fluorophenyl)-N-ethylpyrazolo[1,5-a]pyrimidine-2-carboxamide] | – | – |

| SMILES | IC50 (Human PDE4C1) [µM] | IC50 (human PDE4D3; [1]) [µM] | IC50 (Human PDE4B1; [2]) [µM] | IC50 (Human PDE4A3) [µM] | IC50 (human PDE4D3) [µM] | IC50 (Human PDE4B1) [µM] |
| --- | --- | --- | --- | --- | --- | --- |
| N#Cc1c(F)cc(-c2c(C(=O)N3CCC3)nn3cccnc23)cc1F [Example 62, 4-[2-(azetidin-1-ylcarbonyl)pyrazolo[1,5-a]pyrimidin-3-yl]-2,6-difluorobenzonitrile] | 0.0378 | 0.242 | 0.0173 | 0.00433 | – | – |
| O=C(c1nn2cc(F)cnc2c1-c1ccc(Cl)cc1)N1CCC1 [Example 9, Azetidin-1-yl[3-(4-chlorophenyl)-6-fluoropyrazolo[1,5-a]pyrimidin-2-yl]methanone, Formate Salt] | 0.0553 | – | – | 0.0167 | 3.71 | 0.0344 |

Source: US10131669B2, “Pyrazolopyrimidine compounds” (Pfizer Inc., priority 2014, dated 2018)
